Assay results reported in patent US10746739B2, “Identification of novel diagnostics and therapeutics by modulating RhoH” (Leukemia Therapeutics, LLC, priority 2015, dated 2020).

Test system: pre-existing HCL tumors (JOK-Luc)
Test: Intraperitoneal JOK-Luc HCL xenograft treated with antibody, luminescence imaging
Type: in vivo
Settings: JOK-Luc injected into peritoneum of Hsd:Athymic Nude-Foxn1nu mice; antibody intraperitoneally at day 4 and day 6; imaged at day 7; compared with control IgG antibody
Procedure: JOK-1 cells were stably transfected with the plasmid pGL4.5[Luc2/CMV/Neo] that contains the firefly luciferase gene under control of the constitutive gene promoter of cytomegalovirus. This luciferase cell line was then injected into the peritoneum of mice of the strain Hsd:Athymic Nude-Foxn1^nu. After 3 days, mice were subjected to whole body imaging following intravenous injection of D-Luciferin. Those mice where tumor was detected were intraperitoneally injected at day 4 and day 6 with the anti-CD38 antibody SAR650984 or an IgG control antibody. At day 7, mice were again imaged. Depicted are superimposed luminescence and X-ray images of three mice injected with SAR650984 (CD38) and three injected with the control antibody (Ctrl).
Experiments performed with JOK-CD38-KO indicate that targeting CD38 expression in HCL may have therapeutic efficacy. This was tested using the parent of JOK-CD38-KO where CD38 expression remained intact. The parental line was engineered such that it constitutively produced luciferase and, therefore, could be visualized by luminescence in the presence of luciferin. […]
The role of CD38 in HCL was assessed using 5×10^6 of the cell line pools JOK-CD38-WT or JOK-CD38-KO injected subcutaneously into male or female mice that were 6-8 weeks old and of the strain NOD.Cg-Prkdc^scid IL2rγ^tm1Wj1/SzJ (Jackson Laboratory, Bar Harbor, Me., USA). […]

SAR650984: humanized anti-CD38 antibody SAR650984 (Sanofi Oncology)
effect on pre-existing HCL tumors by luminescence imaging: tended to be reduced
